Results: PubChem BioAssay (NCI)
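Step 1: Grow cells in 96-well plates. Step 2: Expose to compound for 48 hours at 5 concentrations. Step 3: Interpolate endpoints linearly; if unreached, use highest concentration. GI50 marks 50% less growth. Definition used: TGI = concentration required for complete inhibition of growth.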

Legend:
Assay in all cases: DTP human tumour cell line panel, 48 h; in the data active means GI50 below about 0.43 µM; inactive means the rest
[1] = system: HCT-116 colon
[2] = system: NCI-H522 lung
[3] = system: HOP-62 NSCLC
[4] = system: SF-268 CNS
[5] = system: SW-620 colon
[6] = system: HT29 colon
[7] = system: T-47D breast
[8] = system: EKVX NSCLC
[9] = system: UO-31 renal
[10] = system: COLO 205 colon

COc1ccc(N(C)C(=O)N(C)c2ccc([N+](=O)[O-])cc2)cc1
> 100 µM: TGI [1] | TGI [2] | TGI [3] | TGI [4] | TGI [5] | TGI [6] | TGI [7] | TGI [8] | TGI [9]

COc1ccc(/C=c2\[nH]c3nc(=O)c(N4CCOCC4)c(N)n3c2=O)cc1
> 100 µM: TGI [1] | TGI [2] | TGI [4] | TGI [5] | TGI [6] | TGI [10] | TGI [7] | TGI [8] | TGI [9]

C/C(=C\c1ccccn1)c1ccccn1
> 100 µM: TGI [1] | TGI [2] | TGI [3] | TGI [4] | TGI [6] | TGI [10] | TGI [8] | TGI [9]

Cc1ccccc1-n1c(C)nc2c1C(=O)c1ccccc1C2=O
> 100 µM: TGI [1] | TGI [3] | TGI [4] | TGI [5] | TGI [6] | TGI [8] | TGI [9]
68.3 µM: TGI [2]

COc1cc2nc(-c3ccc4ccccc4c3)[nH]c(=O)c2cc1OC
84.3 µM: TGI [3]
> 100 µM: TGI [1] | TGI [2] | TGI [4] | TGI [6] | TGI [10] | TGI [7] | TGI [8] | TGI [9]

CC(=O)/C(=C/n1c(=S)[nH]c2ccccc21)C(=O)Nc1ccccc1C
> 100 µM: TGI [1] | TGI [3] | TGI [4] | TGI [5] | TGI [6] | TGI [10] | TGI [7] | TGI [8] | TGI [9]

CC12N=NN(c3ccc([N+](=O)[O-])cc3)C1(O)c1ccccc1C2=O (stereo unspecified)
> 100 µM: TGI [1] | TGI [2] | TGI [3] | TGI [4] | TGI [5] | TGI [6] | TGI [10] | TGI [8] | TGI [9]

OCC1OC(n2cnc3cncnc32)C(O)C1O (stereo unspecified)
2.89 µM: TGI [6]
1.23 µM: TGI [1]
4.18 µM: TGI [8]
1.84 µM: TGI [5]
1.7 µM: TGI [10]
6.84 µM: TGI [3] | TGI [9]
5.42 µM: TGI [2]
2.98 µM: TGI [4]

C/C=C\C(CC(=O)NCCc1cn(C(=O)OCc2ccccc2)c2ccccc12)CC(=O)OC (stereo unspecified)
> 100 µM: TGI [1] | TGI [2] | TGI [3] | TGI [4] | TGI [5] | TGI [6] | TGI [10] | TGI [8] | TGI [9]

CC(C)=CCC/C(C)=C/CC/C(C)=C/Cc1c(O)c2ccccc2oc1=O
> 100 µM: TGI [1] | TGI [2] | TGI [3] | TGI [4] | TGI [5] | TGI [6] | TGI [10] | TGI [8] | TGI [9]

N=c1oc2ccc3ccccc3c2cc1C(N)=O
> 100 µM: TGI [1] | TGI [3] | TGI [4] | TGI [5] | TGI [6] | TGI [10]
99.7 µM: TGI [7]

COC(=O)C1CCC(=O)N1C(=O)Cc1ccc(OC)cc1 (stereo unspecified)
> 100 µM: TGI [1] | TGI [2] | TGI [4] | TGI [5] | TGI [6] | TGI [10] | TGI [8] | TGI [9]

Cc1cc(=O)n2nc(SCc3ccccc3)sc2n1
67.5 µM: TGI [9]
> 100 µM: TGI [1] | TGI [2] | TGI [3] | TGI [4] | TGI [5] | TGI [6] | TGI [10] | TGI [7]

CCc1c(Cc2cccc3ccccc23)n2c(nc1=O)SCC2OCCO (stereo unspecified)
> 100 µM: TGI [1] | TGI [2] | TGI [4] | TGI [5] | TGI [6] | TGI [10] | TGI [7] | TGI [8] | TGI [9]

c1ccc(CCN2CCc3[nH]c4ccccc4c3C2)cc1
> 100 µM: TGI [4] | TGI [8]
45.6 µM: TGI [3]
> 10 µM: TGI [10]
29.6 µM: TGI [5]
32 µM: TGI [9]
51.5 µM: TGI [7]
28.7 µM: TGI [1]
28.5 µM: TGI [6]

Clc1ccc(N2N=C(c3cccc(Nc4ccncc4)c3)CC2c2ccc3c(c2)OCO3)cc1 (stereo unspecified)
2.86 µM: TGI [9]
5.07 µM: TGI [7]
13.3 µM: TGI [8]
6.55 µM: TGI [6]
3.15 µM: TGI [5]
3.32 µM: TGI [4]
inactive: GI50 [4] 1.63 µM | GI50 [5] 1.63 µM | GI50 [6] 2.44 µM | GI50 [7] 2.13 µM | GI50 [8] 2.9 µM | GI50 [9] 1.36 µM

Cn1nc2n(c1=O)CCCN2
> 100 µM: TGI [1] | TGI [2] | TGI [3] | TGI [4] | TGI [5] | TGI [6] | TGI [10] | TGI [8]

Cc1cc(O)c(C(C)C)cc1SC#N
44.5 µM: TGI [5]
40.5 µM: TGI [10]
24.9 µM: TGI [2]
38.2 µM: TGI [3]
49.3 µM: TGI [4]
65 µM: TGI [7]
